Laboratory results from US20160375019A1, “TREATMENT OF CHRONIC GRAFT VERSUS HOST DISEASE WITH SYK INHIBITORS” (Gilead Sciences, Inc., priority 2015, published 2016).

Columns and labels:
[1] = Kinetic Solubility in phosphate buffer at pH 7.4; assay type: physicochemical; conditions: 37 °C, aqueous buffer, kinetic from dmso stock; phosphate buffer pH 7.4
Experimental: The kinetic solubility of compounds in phosphate buffer at pH 7.4 was assessed. The compounds to be tested were dissolved in dimethylsulfoxide at a 10 mM concentration. Stock samples were diluted, 3 μl with 297 μl of the phosphate buffer at pH 7.4 (DulBecco's phosphate buffered saline (Sigma-Aldrich D8662), overall molarity is 0.149 M and pH 7.43). The samples were then incubated for 24 hours at 37° C. with shaking, the centrifuged and an aliquot taken and tested relative to a known standard concentration of 0.1 mM.

hepatocytes = assay type: in vitro ADME; conditions: human
Experimental: The human […] stability of the compounds as predicted hepatocyte clearance in L/hr/kg was assessed. Compounds to be tested were diluted to 200 μM (4 μl of 10 mM DMSO stock into 196 μl ACN:H2O (50:50). Propranolol was used as a positive control, and buffer only without hepatocytes as 0% control. These were further diluted 4 μl with 891 μl KHB buffer (InVitroGRO catalog number Z99074) to provide 2× dosing solution. To each well of 24 well plate, 250 μl of the 2× dosing solution was added to each well with 250 μl of hepatocytes cells (1×10^6 viable cells/ml per well) or KHB for control samples to achieve a final compound concentration of 1 μM during incubation. The final solvent concentration was 0.01% DMSO and 0.25% ACN. The culture plate was placed on a rocker and incubated at 37° C., 5% CO2. Samples were collected at time 0, 1, 3, and 6 hours. The loss of parent compound was determined using LC-MS methods against a standard curve.

[2] = system: basophils (CD63 expression) in human whole blood; assay: 384-well HTBS Whole Blood CD63 Basophil Assay; assay type: cell-based; conditions: human whole blood (25% blood); comparison table
Experimental: Syk activity was assessed in relation to reduced activation of basophils as measured by the expression of CD63 in a human whole blood basophil cellular assay (25% blood). Basophil activation was measured in human whole blood using the Flow CAST kit (Buhlmann Laboratories AG, Baselstrasse, Switzerland) following the protocol provided by the manufacturer with minor modifications. Fresh human whole blood in heparin was collected and delivered same day (AllCells, Emeryville, Calif.). Whole blood samples were incubated with either DMSO (1% final) or serial diluted compounds in DMSO for 60 minutes at 37° C. Basophils were activated using the anti-FceRI mAb and stained with anti-CD63-FITC and anti-CCR3-PE for 20 minutes at 37° C. (per well: 50 μL of whole blood was mixed with 113 μL of stimulation buffer, 8.5 μL anti-FceRI mAb, 8.5 μL Ab stain CCR3-PE/CD63-FITC). Cells were centrifuged at 1000×g for 18 minutes and 150 μL/well of supernatant removed. Red blood cells were lysed and cells fixed by 2 rounds of cell lysing: resuspending cell pellets with 150 μL/well 1× lysis buffer, incubating at room temperature for 10 minutes, and collecting cell pellets by centrifuging for 1200 rpms for 5 minutes. Cells were washed with 150 μL/well wash buffer twice, and resuspended in a final volume of 75 μL/well of wash buffer for either immediate flow cytometery analysis or overnight incubation at 4° C. followed by flow cytometry analysis. Degranulation (basophil activation) was detected by CD63 surface expression on CCR3 positive cells. The percent CD63 positive cells within the gated basophil population were determined and normalized to the DMSO (negative control) and control compound (positive control).

[3] = system: B cells (CD19+) in PBMCs from cGVHD and inactive cGVHD subjects; assay: Apoptosis Assay: B cells in PBMCs from subjects with active or inactive cGVHD, flow cytometry; assay type: cell-based, human; conditions: 48 hours
Experimental: Entospletinib (Formula I) was prepared as a 10 mM stock in dimethyl sulfoxide (DMSO). Before use, entospletinib was thawed from 10 mM DMSO stocks frozen in 0.75 mL polypropylene tubes at −20° C.
For untreated PBMCs, DMSO alone (the diluent used to generate entospletinib stock solution) was used in the cultures at the equivalent volume as for the 1.0 μM entospletinib treatment group. The cells were then incubated for 48 hr at 37° C. and 5% CO2, harvested, and assessed for the frequency of apoptotic B cells by flow cytometry analysis as described below.
Flow Cytometry Analysis—Cultured PBMCs were washed in FACS wash buffer (PBS containing 2% FBS) and then resuspended in FACS wash containing Fc block (Human TruStain FcXTM Fc Receptor Blocking Solution from BioLegend, San Diego, Calif.) at the recommended concentration. Following a 15 minute incubation on ice, the cells were stained with Pacific Blue™ conjugated anti-human CD19 antibody (BioLegend, Inc.) for an additional 30 min and then washed in cold PBS, followed by a second wash with Annexin V Binding Buffer (Annexin V Apoptosis Detection Kit-APC, eBioscience, Inc.) according to the manufacturer's instructions. The cells were then resuspended in Annexin V Binding Buffer containing APC-conjugated Annexin V, and incubated in the dark for 15 min at RT. Finally, the cells were washed with cold Annexin V Binding Buffer, resuspended in cold Annexin V Binding Buffer containing 7-AAD (BD Biosciences), kept on ice, and analyzed immediately on a FACSCantoTM flow cytometer. Flow cytometry data files were analyzed using FlowJo software (version X) to identify B cells and determine the frequencies of apoptotic cells based on Annexin V and 7-AAD staining.
For each set of patient samples, B cell apoptosis induced by entospletinib at each concentration was determined by the following ratio: % Annexin V^+/7-AAD^− B cells (entospletinib-treated)/% Annexin V^+/7-AAD^− B cells (untreated). […] Graphic display and curve fit analysis to determine the EC50 for entospletinib apoptosis-inducing activity in active cGVHD B cells was performed using GraphPad Prism software (GraphPad Software, La Jolla, Calif).

## Nc1cncc(-c2cn3ccnc3c(Nc3ccc(N4CCN(C5COC5)CC4)cc3)n2)n1 [Ex.-2, 6-(6-aminopyrazin-2-yl)-N-(4-(4-(oxetan-3-yl)piperazin-1-yl)phenyl)imidazo[1,2-a]pyrazin-8-amine]
[1]
  solubility kinetic at 24 h: > 90 µM
hepatocytes
  Hheps CL: 0.917 mL/min/kg

## COc1ccc(Nc2nc(-c3ccc(N)nc3)cn3ccnc23)cc1OC [6-(6-aminopyridin-3-yl)-N-(3,4-dimethoxyphenyl)imidazo[1,2-a]pyrazin-8-amine, reference compound]
hepatocytes
  Hheps CL: 15 mL/min/kg

## Nc1cncc(-c2cn3ccnc3c(Nc3ccc(N4CCOCC4)cc3)n2)c1 [6-(5-aminopyridin-3-yl)-N-(4-morpholinophenyl)imidazo[1,2-a]pyrazin-8-amine, reference compound]
hepatocytes
  Hheps CL: 11.3 mL/min/kg

## COc1ccc(Nc2nc(-c3cccc(N)c3)cn3ccnc23)cc1OC [6-(3-aminophenyl)-N-(3,4-dimethoxyphenyl)imidazo[1,2-a]pyrazin-8-amine, reference compound]
[2]
  IC50: 809 nM
hepatocytes
  Hheps CL: 4 mL/min/kg

## Cc1ncc(-c2cn3ccnc3c(Nc3ccc(N4CCOCC4)cc3)n2)cc1N [6-(5-amino-6-methylpyridin-3-yl)-N-(4-morpholinophenyl)imidazo[1,2-a]pyrazin-8-amine, reference compound]
[2]
  IC50: 250 nM
hepatocytes
  Hheps CL: 13.3 mL/min/kg

## c1cn2cc(-c3ccc4cn[nH]c4c3)nc(Nc3ccc(N4CCOCC4)cc3)c2n1 [Entospletinib, 6-(1H-indazol-6-yl)-N-(4-morpholinophenyl)imidazo[1,2-a]pyrazin-8-amine]
[3]; 1.0-0.0078 μM
  B cell apoptosis, one subject with cGVHD with low level of baseline apoptosis: dose-dependent increase in B cell apoptosis
  B cell apoptosis, other two cGVHD subjects with higher baseline level of apoptosis: caused an increase in B cell apoptosis
  apoptosis of B cells obtained from subjects with cGVHD: caused apoptosis of B cells
[3]; >125 nM ENTO, mean of 3 donors
  B cell apoptosis in cGVHD samples versus subjects without cGVHD: statistically significant dose-dependent increase in B cell apoptosis
[3]; Inactive #1, 7.8 nM
  Annexin V+/7AAD− (frequency of parent): 47.7
[3]; Inactive #1, 15.6 nM
  Annexin V+/7AAD− (frequency of parent): 45.7
[3]; Inactive #1, 31.3 nM
  Annexin V+/7AAD− (frequency of parent): 46.6
[3]; Inactive #1, 62.5 nM
  Annexin V+/7AAD− (frequency of parent): 47.5
[3]; Inactive #1, 125 nM
  Annexin V+/7AAD− (frequency of parent): 53.4
[3]; Inactive #1, 250 nM
  Annexin V+/7AAD− (frequency of parent): 51.3
[3]; Inactive #1, 500 nM
  Annexin V+/7AAD− (frequency of parent): 48.7
[3]; Inactive #1, 1000 nM
  Annexin V+/7AAD− (frequency of parent): 44.4
[3]; Inactive #2, 7.8 nM
  Annexin V+/7AAD− (frequency of parent): 41.5
[3]; Inactive #2, 15.6 nM
  Annexin V+/7AAD− (frequency of parent): 39.8
[3]; Inactive #2, 31.3 nM
  Annexin V+/7AAD− (frequency of parent): 43.9
[3]; Inactive #2, 62.5 nM
  Annexin V+/7AAD− (frequency of parent): 42.2
[3]; Inactive #2, 125 nM
  Annexin V+/7AAD− (frequency of parent): 43.2
[3]; Inactive #2, 250 nM
  Annexin V+/7AAD− (frequency of parent): 44.9
[3]; Inactive #2, 500 nM
  Annexin V+/7AAD− (frequency of parent): 50.2
[3]; Inactive #2, 1000 nM
  Annexin V+/7AAD− (frequency of parent): 50.4
[3]; Inactive #3, 7.8 nM
  Annexin V+/7AAD− (frequency of parent): 50.4
[3]; Inactive #3, 15.6 nM
  Annexin V+/7AAD− (frequency of parent): 51.2
[3]; Inactive #3, 31.3 nM
  Annexin V+/7AAD− (frequency of parent): 51.7
[3]; Inactive #3, 62.5 nM
  Annexin V+/7AAD− (frequency of parent): 52.1
[3]; Inactive #3, 125 nM
  Annexin V+/7AAD− (frequency of parent): 52.4
[3]; Inactive #3, 250 nM
  Annexin V+/7AAD− (frequency of parent): 56.2
[3]; Inactive #3, 500 nM
  Annexin V+/7AAD− (frequency of parent): 57.1
[3]; Inactive #3, 1000 nM
  Annexin V+/7AAD− (frequency of parent): 55.6
[3]; cGVHD #1, 7.8 nM
  Annexin V+/7AAD− (frequency of parent): 40.1
[3]; cGVHD #1, 15.6 nM
  Annexin V+/7AAD− (frequency of parent): 40.4
[3]; cGVHD #1, 31.3 nM
  Annexin V+/7AAD− (frequency of parent): 42.0
[3]; cGVHD #1, 62.5 nM
  Annexin V+/7AAD− (frequency of parent): 48.2
[3]; cGVHD #1, 125 nM
  Annexin V+/7AAD− (frequency of parent): 48.2
[3]; cGVHD #1, 250 nM
  Annexin V+/7AAD− (frequency of parent): 50.7
[3]; cGVHD #1, 500 nM
  Annexin V+/7AAD− (frequency of parent): 53.6
[3]; cGVHD #1, 1000 nM
  Annexin V+/7AAD− (frequency of parent): 55.0
[3]; cGVHD #2, 7.8 nM
  Annexin V+/7AAD− (frequency of parent): 41.0
[3]; cGVHD #2, 15.6 nM
  Annexin V+/7AAD− (frequency of parent): 40.7
[3]; cGVHD #2, 31.3 nM
  Annexin V+/7AAD− (frequency of parent): 39.6
[3]; cGVHD #2, 62.5 nM
  Annexin V+/7AAD− (frequency of parent): 41.5
[3]; cGVHD #2, 125 nM
  Annexin V+/7AAD− (frequency of parent): 43.9
[3]; cGVHD #2, 250 nM
  Annexin V+/7AAD− (frequency of parent): 48.6
[3]; cGVHD #2, 500 nM
  Annexin V+/7AAD− (frequency of parent): 48.3
[3]; cGVHD #2, 1000 nM
  Annexin V+/7AAD− (frequency of parent): 53.5
[3]; cGVHD #3, 7.8 nM
  Annexin V+/7AAD− (frequency of parent): 19.6
[3]; cGVHD #3, 15.6 nM
  Annexin V+/7AAD− (frequency of parent): 20.0
[3]; cGVHD #3, 31.3 nM
  Annexin V+/7AAD− (frequency of parent): 20.8
[3]; cGVHD #3, 62.5 nM
  Annexin V+/7AAD− (frequency of parent): 21.6
[3]; cGVHD #3, 125 nM
  Annexin V+/7AAD− (frequency of parent): 26.4
[3]; cGVHD #3, 250 nM
  Annexin V+/7AAD− (frequency of parent): 29.5
[3]; cGVHD #3, 500 nM
  Annexin V+/7AAD− (frequency of parent): 32.7
[3]; cGVHD #3, 1000 nM
  Annexin V+/7AAD− (frequency of parent): 42.2
